Results: PubChem BioAssay (NCI)
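GI50 marks 50% less growth. At the TGI there is no net growth.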

Assays:
Assay in all cases: inhibition of tumour cell growth, NCI panel, 384-well format
A498 renal = test system: A498 renal
A549 NSCLC = test system: A549 NSCLC
ACHN renal = test system: ACHN renal
CAKI-1 renal = test system: CAKI-1 renal
DU-145 prostate = test system: DU-145 prostate
EKVX NSCLC = test system: EKVX NSCLC
HCC-2998 colon = test system: HCC-2998 colon
HCT-116 colon = test system: HCT-116 colon
HCT-15 colon = test system: HCT-15 colon
HOP-62 NSCLC = test system: HOP-62 NSCLC
HOP-92 NSCLC = test system: HOP-92 NSCLC
HS 578T breast = test system: HS 578T breast
HT29 colon = test system: HT29 colon
K-562 leukemia = test system: K-562 leukemia
LOX IMVI melanoma = test system: LOX IMVI melanoma
M14 melanoma = test system: M14 melanoma
MALME-3M melanoma = test system: MALME-3M melanoma
MCF7 breast = test system: MCF7 breast
MDA-MB-231 breast = test system: MDA-MB-231 breast
MDA-MB-435 melanoma = test system: MDA-MB-435 melanoma
MDA-MB-468 breast = test system: MDA-MB-468 breast
NCI-H226 lung = test system: NCI-H226 lung
NCI-H23 lung = test system: NCI-H23 lung
NCI-H322M lung = test system: NCI-H322M lung
NCI-H460 NSCLC = test system: NCI-H460 NSCLC
NCI-H522 lung = test system: NCI-H522 lung
NCI/ADR-RES ovarian = test system: NCI/ADR-RES ovarian
OVCAR-3 ovarian = test system: OVCAR-3 ovarian
OVCAR-5 ovarian = test system: OVCAR-5 ovarian
OVCAR-8 ovarian = test system: OVCAR-8 ovarian
RXF 393 renal = test system: RXF 393 renal
SF-268 CNS = test system: SF-268 CNS
SF-295 CNS = test system: SF-295 CNS
SK-MEL-2 melanoma = test system: SK-MEL-2 melanoma
SK-MEL-28 melanoma = test system: SK-MEL-28 melanoma
SK-MEL-5 melanoma = test system: SK-MEL-5 melanoma
SK-OV-3 ovarian = test system: SK-OV-3 ovarian
SN12C renal = test system: SN12C renal
SNB-19 CNS = test system: SNB-19 CNS
SNB-75 CNS = test system: SNB-75 CNS
SR leukemia = test system: SR leukemia
SW-620 colon = test system: SW-620 colon
T-47D breast = test system: T-47D breast
TK-10 renal = test system: TK-10 renal
UACC-257 melanoma = test system: UACC-257 melanoma
UACC-62 melanoma = test system: UACC-62 melanoma
UO-31 renal = test system: UO-31 renal

**Q.** What does the source list for `COc1cc2c(Nc3cc(Cl)c(OC)c(Cl)c3)c(C#N)cnc2cc1OCCCN1CCN(C)CC1`?
**A.** GI50 (A498 renal): 257 nM; TGI (A498 renal): 1400 nM; GI50 (A549 NSCLC): 1100 nM; TGI (A549 NSCLC): 2370 nM; GI50 (ACHN renal): 257 nM; TGI (ACHN renal): 1500 nM; GI50 (CAKI-1 renal): 180 nM; TGI (CAKI-1 renal): 1340 nM; GI50 (DU-145 prostate): 843 nM; TGI (DU-145 prostate): 2290 nM; GI50 (EKVX NSCLC): 404 nM; TGI (EKVX NSCLC): 1740 nM; GI50 (HCC-2998 colon): 1060 nM; TGI (HCC-2998 colon): 2260 nM; GI50 (HCT-116 colon): 329 nM; TGI (HCT-116 colon): 1200 nM; GI50 (HCT-15 colon): 878 nM; TGI (HCT-15 colon): 2170 nM; GI50 (HOP-62 NSCLC): 1090 nM; TGI (HOP-62 NSCLC): 2440 nM; GI50 (HOP-92 NSCLC): 465 nM; TGI (HOP-92 NSCLC): 1490 nM; GI50 (HS 578T breast): 456 nM; TGI (HS 578T breast): 1350 nM; GI50 (HT29 colon): 1630 nM; TGI (HT29 colon): 4360 nM; GI50 (K-562 leukemia): 166 nM; TGI (K-562 leukemia): 330 nM; GI50 (LOX IMVI melanoma): 1230 nM; TGI (LOX IMVI melanoma): 2490 nM; GI50 (M14 melanoma): 191 nM; TGI (M14 melanoma): 633 nM; GI50 (MALME-3M melanoma): 296 nM; TGI (MALME-3M melanoma): 1160 nM; GI50 (MCF7 breast): 451 nM; TGI (MCF7 breast): 1860 nM; GI50 (MDA-MB-231 breast): 1360 nM; TGI (MDA-MB-231 breast): 2920 nM; GI50 (MDA-MB-435 melanoma): 256 nM; TGI (MDA-MB-435 melanoma): 925 nM; GI50 (MDA-MB-468 breast): 288 nM; TGI (MDA-MB-468 breast): 618 nM; GI50 (NCI-H226 lung): 1280 nM; TGI (NCI-H226 lung): 2960 nM; GI50 (NCI-H23 lung): 401 nM; TGI (NCI-H23 lung): 1480 nM; GI50 (NCI-H322M lung): 234 nM; TGI (NCI-H322M lung): 1110 nM; GI50 (NCI-H460 NSCLC): 1020 nM; TGI (NCI-H460 NSCLC): 2230 nM; GI50 (NCI-H522 lung): 47.7 nM; TGI (NCI-H522 lung): 234 nM; GI50 (NCI/ADR-RES ovarian): 1830 nM; TGI (NCI/ADR-RES ovarian): 3640 nM; GI50 (OVCAR-3 ovarian): 323 nM; TGI (OVCAR-3 ovarian): 1280 nM; GI50 (OVCAR-5 ovarian): 1200 nM; TGI (OVCAR-5 ovarian): 2700 nM; GI50 (OVCAR-8 ovarian): 389 nM; TGI (OVCAR-8 ovarian): 1530 nM; GI50 (RXF 393 renal): 221 nM; TGI (RXF 393 renal): 677 nM; GI50 (SF-268 CNS): 604 nM; TGI (SF-268 CNS): 2060 nM; GI50 (SF-295 CNS): 909 nM; TGI (SF-295 CNS): 2150 nM; GI50 (SK-MEL-2 melanoma): 456 nM; TGI (SK-MEL-2 melanoma): 1350 nM; GI50 (SK-MEL-28 melanoma): 1440 nM; TGI (SK-MEL-28 melanoma): 2800 nM; GI50 (SK-MEL-5 melanoma): 464 nM; TGI (SK-MEL-5 melanoma): 1550 nM; GI50 (SK-OV-3 ovarian): 167 nM; TGI (SK-OV-3 ovarian): 1420 nM; GI50 (SN12C renal): 321 nM; TGI (SN12C renal): 1430 nM; GI50 (SNB-19 CNS): 1710 nM; TGI (SNB-19 CNS): 3630 nM; GI50 (SNB-75 CNS): 1270 nM; TGI (SNB-75 CNS): 2540 nM; GI50 (SR leukemia): 195 nM; TGI (SR leukemia): 377 nM; GI50 (SW-620 colon): 1220 nM; TGI (SW-620 colon): 2520 nM; GI50 (T-47D breast): 1330 nM; TGI (T-47D breast): 2630 nM; GI50 (TK-10 renal): 381 nM; TGI (TK-10 renal): 1620 nM; GI50 (UACC-257 melanoma): 538 nM; TGI (UACC-257 melanoma): 1640 nM; GI50 (UACC-62 melanoma): 1230 nM; TGI (UACC-62 melanoma): 2480 nM; GI50 (UO-31 renal): 605 nM; TGI (UO-31 renal): 1850 nM
